Tested on: HIF-2α HIS TAG-PASB Domain
Assay: HIF-2α Scintillation Proximity Assay (SPA)
Type: binding
Description: The percent inhibition was determined and IC50 values were calculated using the Dotmatics system based on the following equation: % inhibition=[(high control−sample)/(high control−low control)]×100.

Structure (SMILES) | IC50 [nM]
N#Cc1cc(F)cc(Oc2ccc(S(=O)(=O)C(F)(F)F)c3c2[C@@H](N)C[C@H]3O)c1 (relative stereo) [Compound 279, 3-((cis-3-amino-1-hydroxy-7-((trifluoromethyl)sulfonyl)-2,3-dihydro-1H-inden-4-yl)oxy)-5-fluorobenzonitrile] | 5100
CS(=O)(=NC#N)c1ccc(Oc2cncc(C#N)c2)c2c1[C@H](O)C(F)(F)[C@@H]2F (single isomer, unassigned) [Compound 321] | 32
N#Cc1cc(F)cc(Oc2ccc(S(=N)(=O)CF)c3c2CC(F)(F)[C@H]3O)c1 (single isomer, unassigned) [Example 274] | 94
CS(=O)(=NC#N)c1ccc(Oc2cc(F)cc(C#N)c2)c2c1[C@H](O)C(F)(F)[C@@H]2F (single isomer, unassigned) [Example 316] | < 5
O=S(=O)(c1ccc(Oc2cncc(F)c2)c2c1[C@H](O)CC2)C(F)F [Compound 5, (R)-7-((difluoromethyl)sulfonyl)-4-((5-fluoropyridin-3-yl)oxy)-2,3-dihydro-1H-inden-1-ol] | 900
O=S(=O)(c1ccc(Oc2cc(F)cc(Cl)c2)c2c1C(O)C(F)(F)C2)C(F)F (stereo not shown) [Compound 8, 4-(3-chloro-5-fluoro-phenoxy)-7-(difluoromethylsulfonyl)-2,2-difluoro-indan-1-ol] | < 5
C=CCC1(O)c2c(S(=O)(=O)C(F)F)ccc(Oc3cc(F)cc(F)c3)c2CC1(F)F (stereo not shown) [Compound 12, 1-allyl-7-(difluoromethylsulfonyl)-4-(3,5-difluorophenoxy)-2,2-difluoro-indan-1-ol] | 9800
CC1(O)c2c(S(=O)(=O)C(F)F)ccc(Oc3cc(F)cc(C#N)c3)c2CC1(F)F (stereo not shown) [Compound 13, 3-[7-(difluoromethylsulfonyl)-2,2-difluoro-1-hydroxy-1-methyl-indan-4-yl]oxy-5-fluoro-benzonitrile] | 6600
N#CCS(=O)(=O)c1ccc(Oc2cc(F)cc(F)c2)c2c1C(O)CC2 (stereo not shown) [Compound 14, 2-[7-(3,5-difluorophenoxy)-3-hydroxy-indan-4-yl]sulfonylacetonitrile] | 5200
O=C1CCc2c(Oc3cc(F)cc(Cl)c3)ccc(S(=O)(=O)C(F)F)c21 [Compound 18, 4-(3-chloro-5-fluorophenoxy)-7-((difluoromethyl)sulfonyl)-2,3-dihydro-1H-inden-1-one] | 120
NC1CCc2c(Oc3cc(F)cc(F)c3)ccc(S(=O)(=O)C(F)F)c21 (stereo not shown) [Compound 19, 7-((difluoromethyl)sulfonyl)-4-(3,5-difluorophenoxy)-2,3-dihydro-1H-inden-1-amine] | 38000
O=S(=O)(c1ccc(Oc2cc(F)cc(F)c2)c2c1C=CC2)C(F)F [Compound 21, 4-((Difluoromethyl)sulfonyl)-7-(3,5-difluorophenoxy)-1H-indene] | 140
O=S(=O)(c1ccc(Oc2cc(F)cc(F)c2)c2c1C(CO)CC2)C(F)F (stereo not shown) [Compound 24, (7-((Difluoromethyl)sulfonyl)-4-(3,5-difluorophenoxy)-2,3-dihydro-1H-inden-1-yl)methanol] | 920
N#Cc1c(Oc2cc(F)cc(Cl)c2)ccc(S(=O)(=O)C(F)(F)F)c1Cl [Compound 28, 2-Chloro-6-(3-chloro-5-fluorophenoxy)-3-((trifluoromethyl)sulfonyl)benzonitrile] | 49900
N#Cc1cc(F)cc(Oc2ccc(S(=O)(=O)C(F)(F)F)c(Cl)c2C#N)c1 [Compound 29, 2-Chloro-6-(3-cyano-5-fluorophenoxy)-3-((trifluoromethyl)sulfonyl)benzonitrile] | 22
Cc1c(S(=O)(=O)C(F)F)ccc(Oc2cc(F)cc(Cl)c2)c1C#N [Compound 32, 6-(3-Chloro-5-fluorophenoxy)-3-((difluoromethyl)sulfonyl)-2-methylbenzonitrile] | 18
Cc1c(S(=O)(=O)C(F)F)ccc(Oc2cc(F)cc(C#N)c2)c1C#N [Compound 33, 6-(3-Cyano-5-fluorophenoxy)-3-((difluoromethyl)sulfonyl)-2-methylbenzonitrile] | 157
Cc1c(S(=O)(=O)C(F)F)ccc(Oc2cc(F)cc(F)c2)c1C#N [Compound 34, 3-((Difluoromethyl)sulfonyl)-6-(3,5-difluorophenoxy)-2-methylbenzonitrile] | < 5
O=S(=O)(c1ccc(Oc2cc(F)cc(Cl)c2)c(Cl)c1CNCC(F)(F)F)C(F)F [Compound 47, N-(2-Chloro-3-(3-chloro-5-fluorophenoxy)-6-((difluoromethyl)sulfonyl)benzyl)-2,2,2-trifluoroethan-1-amine] | 9000
O=S(=O)(c1ccc(Oc2cc(F)cc(Cl)c2)c(Cl)c1CNC1CCCOC1)C(F)F (stereo not shown) [Compound 49, N-(2-Chloro-3-(3-chloro-5-fluorophenoxy)-6-((difluoromethyl)sulfonyl)benzyl)tetrahydro-2H-pyran-3-amine] | 13000
Cc1c(S(C)(=O)=O)ccc(Oc2cc(F)cc(C#N)c2)c1C#N [Compound 51, 6-(3-Cyano-5-fluorophenoxy)-2-methyl-3-(methylsulfonyl)benzonitrile] | 2000
Cc1c(S(C)(=O)=O)ccc(Oc2cc(F)cc(F)c2)c1C#N [Compound 52, 6-(3,5-Difluorophenoxy)-2-methyl-3-(methylsulfonyl)benzonitrile] | 46
N#Cc1ccc(Oc2cc(F)cc(F)c2)c2c1[C@H](O)CC2 [Compound 66, (R)-7-(3,5-Difluorophenoxy)-3-hydroxy-2,3-dihydro-1H-indene-4-carbonitrile] | 5000
CS(=O)(=NC#N)c1ccc(Oc2cc(F)cc(C#N)c2)c2c1C(O)CC2 (stereo not shown) [Compound 68] | 3100
N=S(=O)(c1ccc(Oc2cc(F)cc(Cl)c2)c(Br)c1)C(F)F (stereo not shown) [Compound 69, 2-bromo-1-(3-chloro-5-fluorophenoxy)-4-((difluoromethyl)sulfonimidoyl)benzene] | 1300
CN=S(=O)(c1ccc(Oc2cc(F)cc(Cl)c2)c(Br)c1)C(F)F (stereo not drawn) [Compound 70, N-methyl-2-bromo-1-(3-chloro-5-fluorophenoxy)-4-(S-(difluoromethyl)sulfonimidoyl)benzene] | 770
N=S(=O)(c1ccc(Oc2cc(F)cc(Cl)c2)c(Br)c1)C(F)(F)F (stereo not shown) [Compound 71, 2-bromo-1-(3-chloro-5-fluorophenoxy)-4-((trifluoromethyl)sulfonimidoyl)benzene] | 640
N#Cc1c(S(=O)(=O)C(F)F)ccc(Oc2cc(F)cc(Cl)c2)c1Br [Compound 76, 2-bromo-3-(3-chloro-5-fluorophenoxy)-6-((difluoromethyl)sulfonyl)benzonitrile] | 880

The remaining lines, values ahead:

IC50 [nM] | Structure (SMILES)
14 | CS(=O)(=NC#N)c1ccc(Oc2cncc(C#N)c2)c2c1[C@H](O)C(F)(F)[C@@H]2F (single isomer, unassigned) [Compound 319]
71 | N#CN=S(=O)(CF)c1ccc(Oc2cc(F)cc(C#N)c2)c2c1[C@H](O)C(F)(F)C2 (single isomer, unassigned) [Example 285]
< 5 | O=S(=O)(c1ccc(Oc2cc(F)cc(F)c2)c2c1[C@H](O)CC2)C(F)F [Compound 2, (R)-7-((Difluoromethyl)sulfonyl)-4-(3,5-difluorophenoxy)-2,3-dihydro-1H-inden-1-ol]
340 | O=S(=O)(c1ccc(Oc2cncc(Cl)c2)c2c1[C@H](O)CC2)C(F)F [Compound 3, (R)-4-((5-chloropyridin-3-yl)oxy)-7-((difluoromethyl)sulfonyl)-2,3-dihydro-1H-inden-1-ol]
3300 | N#Cc1cncc(Oc2ccc(S(=O)(=O)C(F)F)c3c2CC[C@H]3O)c1 [Compound 4, (R)-5-((7-((Difluoromethyl)sulfonyl)-1-hydroxy-2,3-dihydro-1H-inden-4-yl)oxy)nicotinonitrile]
< 5 | O=S(=O)(c1ccc(Oc2cc(F)cc(F)c2)c2c1C(O)C(F)(F)C2)C(F)F (stereo not shown) [Compound 9, 7-(difluoromethylsulfonyl)-4-(3,5-difluorophenoxy)-2,2-difluoro-indan-1-ol]
1100 | O=S(=O)(c1ccc(Oc2cc(F)cc(F)c2)c2c1CCC2)C(F)F [Compound 20, 4-((Difluoromethyl)sulfonyl)-7-(3,5-difluorophenoxy)-2,3-dihydro-1H-indene]
17000 | CN(C)Cc1c(S(=O)(=O)C(F)F)ccc(Oc2cc(F)cc(Cl)c2)c1C#N [Compound 36, 6-(3-Chloro-5-fluorophenoxy)-3-((difluoromethyl)sulfonyl)-2-((dimethylamino)methyl)benzonitrile]
6700 | Cc1c([S+]([O-])C(F)F)ccc(Oc2cc(F)cc(Cl)c2)c1C#N (stereo not shown) [Compound 37, 6-(3-Chloro-5-fluorophenoxy)-3-((difluoromethyl)sulfinyl)-2-methylbenzonitrile]
6100 | O=S(=O)(c1ccc(Oc2cc(F)cc(Cl)c2)c(Cl)c1Cn1ccnc1)C(F)F [Compound 45, 1-(2-Chloro-3-(3-chloro-5-fluorophenoxy)-6-((difluoromethyl)sulfonyl)benzyl)-1H-imidazole]
920 | O=S(=O)(c1ccc(Oc2cc(F)cc(Cl)c2)c(Cl)c1CNC1CCOCC1)C(F)F [Compound 48, N-(2-Chloro-3-(3-chloro-5-fluorophenoxy)-6-((difluoromethyl)sulfonyl)benzyl)tetrahydro-2H-pyran-4-amine]
330 | Cc1c(S(C)(=O)=O)ccc(Oc2cc(F)cc(Cl)c2)c1C(F)F [Compound 53, 1-(3-Chloro-5-fluorophenoxy)-2-(difluoromethyl)-3-methyl-4-(methylsulfonyl)benzene]
510 | N#Cc1cc(S(=N)(=O)C(F)(F)F)ccc1Oc1cc(F)cc(Cl)c1 (stereo not shown) [Compound 72, 2-(3-chloro-5-fluorophenoxy)-5-((trifluoromethyl)sulfonimidoyl)benzonitrile]
1400 | N#Cc1cc(F)cc(Oc2ccc(S(=N)(=O)C(F)(F)F)cc2C#N)c1 (stereo not shown) [Compound 73, 2-(3-cyano-5-fluorophenoxy)-5-((trifluoromethyl)sulfonimidoyl)benzonitrile]
240 | N=S(=O)(c1ccc(Oc2cc(F)cc(Cl)c2)c(Br)c1Cl)C(F)(F)F (stereo not shown) [Compound 75, (3-bromo-2-chloro-4-(3-chloro-5-fluorophenoxy)phenyl)(imino)(trifluoromethyl)-λ^6-sulfanone]

From patent US9896418B2, “Aryl ethers and uses thereof” (Peloton Therapeutics, Inc., priority 2013, dated 2018)
